Source: ChEMBL document CHEMBL6182876, “Design, synthesis and preliminary structure-activity relationship of 2-iminothiazolidine-4-one derivatives against Schistosoma japonicum in vitro and in vivo” (Eur J Med Chem, 2025)
Active and inactive are the calls of the source. The rule behind the calls is not given here.

Legend:
[1] = Acute toxicity in ICR mouse assessed as TBIL level at 1144 mg/kg, po administered for 7 days; type: organism-based; conditions: in vivo, 168 h, time 7 day
Schistosoma japonicum [2] = experiment: Anti-schistosomal activity against male adult Schistosoma japonicum assessed as appearance of intact tegument surface at 25 uM measured for 72 hrs by SEM analysis; type: functional, organism-based
Schistosoma japonicum [3] = experiment: Anti-schistosomal activity against female adult Schistosoma japonicum assessed as loss of tegumental architecture at 25 uM measured after 72 hrs by SEM analysis; type: functional, organism-based
Schistosoma japonicum [4] = experiment: Anti-schistosomal activity against male adult Schistosoma japonicum assessed as complete loss of sucker-associated muscular architecture at 25 uM measured for 72 hrs by SEM analysis; type: functional, organism-based
Schistosoma japonicum [5] = experiment: Anti-schistosomal activity against juvenile Schistosoma japonicum infected in ICR mouse assessed as cellular vacuolization at 25 mg/kg, ip administered for 7 days; type: functional, organism-based; conditions: time 7.0 day
Schistosoma japonicum [6] = experiment: Anti-schistosomal activity against adult Schistosoma japonicum infected in ICR mouse assessed as number of worms at 25 mg/kg, ip administered for 7 days; type: functional; conditions: time 7 day
Schistosoma japonicum [7] = experiment: Anti-schistosomal activity against adult Schistosoma japonicum assessed as mortality by measuring body twisting at 50 uM incubated for 1 to 72 hrs by optical microscopic analysis; type: functional, organism-based; conditions: time 1-72 hrs
Schistosoma japonicum [8] = experiment: Anti-schistosomal activity against adult Schistosoma japonicum infected in ICR mouse assessed as reduction in worm burden at 25 mg/kg, ip administered for 7 days; type: functional; design: scale not given: the % may be the effect or the level left; conditions: time 7 day
[9] = Acute toxicity in ICR mouse assessed as ALT level at 1144 mg/kg, po administered for 7 days; type: organism-based; conditions: in vivo, 168 h, time 7 day
Schistosoma japonicum [10] = experiment: Anti-schistosomal activity against juvenile Schistosoma japonicum infected in ICR mouse assessed as reduction in worm burden at 25 mg/kg, ip administered for 7 days; type: functional; design: scale not given: the % may be the effect or the level left; conditions: time 7 day
[11] = Acute toxicity in ICR mouse assessed as AST level at 1144 mg/kg, po administered for 7 days; type: organism-based; conditions: in vivo, 168 h, time 7 day
Schistosoma japonicum [12] = experiment: Anti-schistosomal activity against juvenile Schistosoma japonicum infected in ICR mouse assessed as number of eggs in hepatocyte at 25 mg/kg, ip administered for 7 days; type: functional, organism-based; conditions: time 7.0 day
Schistosoma japonicum [13] = experiment: Anti-schistosomal activity against male adult Schistosoma japonicum assessed as loss of tegumental architecture at 25 uM measured after 72 hrs by SEM analysis; type: functional, organism-based
Schistosoma japonicum [14] = experiment: Anti-schistosomal activity against juvenile Schistosoma japonicum infected in ICR mouse assessed as number of worms at 25 mg/kg, ip administered for 7 days; type: functional; conditions: time 7 day
Schistosoma japonicum [15] = experiment: Anti-schistosomal activity against male adult Schistosoma japonicum assessed as appearance of sensory papillae at 25 uM measured for 72 hrs by SEM analysis; type: functional, organism-based
Schistosoma japonicum [16] = experiment: Anti-schistosomal activity against adult Schistosoma japonicum measured at 72 hrs; type: functional, organism-based
Schistosoma japonicum [17] = experiment: Anti-schistosomal activity against male adult Schistosoma japonicum assessed as disruption of tegument spines on the oral suckers at 25 uM measured for 72 hrs by SEM analysis; type: functional, organism-based
Schistosoma japonicum [18] = experiment: Anti-schistosomal activity against adult Schistosoma japonicum assessed as worm mortality at 100 uM measured at 24 hrs relative to control; type: functional
Schistosoma japonicum [19] = experiment: Anti-schistosomal activity against male adult Schistosoma japonicum assessed as surface destabilization at 25 uM measured for 72 hrs by SEM analysis; type: functional, organism-based
Schistosoma japonicum [20] = experiment: Anti-schistosomal activity against male adult Schistosoma japonicum assessed as appearance of parallel wrinkles at 25 uM measured for 72 hrs by SEM analysis; type: functional, organism-based
Schistosoma japonicum [21] = experiment: Anti-schistosomal activity against adult Schistosoma japonicum assessed as worm mortality at 100 uM measured at 8 hrs relative to control; type: functional
Schistosoma japonicum [22] = experiment: Anti-schistosomal activity against adult Schistosoma japonicum assessed as darkened body pigmentation at 50 uM incubated for 1 to 72 hrs by optical microscopic analysis; type: functional, organism-based; conditions: time 1-72 hrs
[23] = Acute toxicity in ICR mouse assessed as BUN level at 1144 mg/kg, po administered for 7 days; type: organism-based; conditions: in vivo, 168 h, time 7 day
[24] = Acute toxicity in po dosed ICR mouse assessed as lethal dose; type: organism-based; conditions: in vivo
Schistosoma japonicum [25] = experiment: Anti-schistosomal activity against adult Schistosoma japonicum assessed as worm mortality at 100 uM measured at 72 hrs relative to control; type: functional
Schistosoma japonicum [26] = experiment: Anti-schistosomal activity against adult Schistosoma japonicum assessed as muscle contractions at 50 uM incubated for 1 to 72 hrs by optical microscopic analysis; type: functional, organism-based; conditions: time 1-72 hrs
Schistosoma japonicum [27] = experiment: Anti-schistosomal activity against adult Schistosoma japonicum assessed as worm mortality at 100 uM measured at 12 hrs relative to control; type: functional
[28] = Acute toxicity in ICR mouse assessed as liver damage at 1144 mg/kg, po administered for 7 days by H and E staining based analysis; type: organism-based; conditions: in vivo, 168 h, time 7 day
Schistosoma japonicum [29] = experiment: Anti-schistosomal activity against male adult Schistosoma japonicum assessed as appearance of degradation of subtegumental matrix at 25 uM measured for 72 hrs by SEM analysis; type: functional, organism-based
Schistosoma japonicum [30] = experiment: Anti-schistosomal activity against adult Schistosoma japonicum assessed as reduction in oviposition at 50 uM incubated for 72 hrs by optical microscopic analysis; type: functional, organism-based
Schistosoma japonicum [31] = experiment: Anti-schistosomal activity against juvenile Schistosoma japonicum infected in ICR mouse assessed as accumulation of inflammatory cells at 25 mg/kg, ip administered for 7 days; type: functional, organism-based; conditions: time 7.0 day
Schistosoma japonicum [32] = experiment: Anti-schistosomal activity against adult Schistosoma japonicum assessed as disintegration of tegument at 25 uM measured for 72 hrs by SEM analysis; type: functional, organism-based
Schistosoma japonicum [33] = experiment: Anti-schistosomal activity against adult Schistosoma japonicum assessed as worm mortality at 100 uM measured at 48 hrs relative to control; type: functional
Schistosoma japonicum [34] = experiment: Anti-schistosomal activity against adult Schistosoma japonicum assessed as collapse of sucker musculature at 25 uM measured for 72 hrs by SEM analysis; type: functional, organism-based
Schistosoma japonicum [35] = experiment: Anti-schistosomal activity against adult Schistosoma japonicum assessed as worm mortality at 100 uM measured at 4 hrs relative to control; type: functional
[36] = Toxicity in ICR mouse infected with Schistosoma japonicum assessed as serum BUN level at 25 mg/kg, ip administered for 7 days; type: organism-based; conditions: in vivo, 168 h, time 7 day

## CCOC(=O)/C=C1\S/C(=N\c2ccc(C(F)(F)F)cc2)N(CCCN2CCN(C)CC2)C1=O
[1]
  Activity: 3.24 µM
Schistosoma japonicum [2]
  Activity: Active
Schistosoma japonicum [3]
  Activity: Active
Schistosoma japonicum [4]
  Activity: Active
Schistosoma japonicum [5]
  Activity: Active
Schistosoma japonicum [6]
  Activity: 24%
Schistosoma japonicum [7]
  Activity: Active
Schistosoma japonicum [8]
  Activity: 52%
[9]
  Activity: 142 U/L
Schistosoma japonicum [10]
  Activity: 26%
[11]
  Activity: 41 U/L
Schistosoma japonicum [12]
  Activity: Active
Schistosoma japonicum [13]
  Activity: Active
Schistosoma japonicum [14]
  Activity: 32%
Schistosoma japonicum [15]
  Activity: Active
Schistosoma japonicum [16]
  IC50: 25.3 µM
Schistosoma japonicum [17]
  Activity: Active
Schistosoma japonicum [18]
  mortality at 100 µM: 100%
Schistosoma japonicum [19]
  Activity: Active
Schistosoma japonicum [20]
  Activity: Active
Schistosoma japonicum [21]
  mortality at 100 µM: 50%
Schistosoma japonicum [22]
  Activity: Active
[23]
  Activity: 9.6 mM
[24]
  LD50: 1400 mg/kg
Schistosoma japonicum [25]
  mortality at 100 µM: 100%
Schistosoma japonicum [26]
  Activity: Active
Schistosoma japonicum [27]
  mortality at 100 µM: 100%
[28]
  Activity: Non-toxic
Schistosoma japonicum [29]
  Activity: Active
Schistosoma japonicum [30]
  Activity: Active
Schistosoma japonicum [31]
  Activity: Active
Schistosoma japonicum [32]
  Activity: Active
Schistosoma japonicum [33]
  mortality at 100 µM: 100%
Schistosoma japonicum [34]
  Activity: Active
Schistosoma japonicum [35]
  mortality at 100 µM: 20%
[36]
  Activity: 7.22 mM
